Assay results reported in US12162820B2 (TAIWANJ PHARMACEUTICALS CO., LTD., priority 2019, dated 2024).

What was measured:
Type in all cases: biochemical
HDAC2 = biological target: T1, HDAC2 (Homo sapiens, UniProt Q92769); experiment: HDAC Inhibition Screening Assay (FLUOR DE LYS Fluorimetric Drug Discovery Kit), HDAC2; conditions: for inhibition at 2 µM: 2 μM compound; for inhibition at 10 µM: 10 μM compound; for inhibition at 50 µM: 50 μM compound
T1 construct: purchased Enzo Life Sciences
Method in brief: (§1)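 Compounds at 2 μM, 10 μM and 50 μM were each tested against HDAC1, HDAC2 and HDAC3 using a two-step fluorimetric assay. Results are given as percent of basal control after baseline subtraction.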

ATX (autotaxin) = biological target: T2, ATX (autotaxin) (Homo sapiens, UniProt Q13822); experiment: Autotaxin Inhibition Screening Assay (choline release from LPC, LPC-CR); conditions: for inhibition at 4 µM: 4 μM compound; for inhibition at 20 µM: 20 μM compound; for inhibition at 50 µM: 50 μM compound
T2 construct: purchased Cayman 10803
Method in brief: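 20 ng ATX incubated with 100 μM 14:0 LPC in 50 mM Tris pH 8.0, 0.01% Triton X-100, 50 mM CaCl2, with choline oxidase/HRP/2 mM HVA coupling; compounds at 4, 20 and 50 μM. HVA fluorescence (ex/em 320/450 nm) read every 60 s for 90 min; inhibition % from slopes corrected for blank versus vehicle.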

HDAC1 = biological target: T3, HDAC1 (Homo sapiens, UniProt Q13547); experiment: HDAC Inhibition Screening Assay (FLUOR DE LYS Fluorimetric Drug Discovery Kit), HDAC1; conditions: for inhibition at 2 µM: 2 μM compound; for inhibition at 10 µM: 10 μM compound; for inhibition at 50 µM: 50 μM compound
T3 construct: purchased Enzo Life Sciences
Method in brief: as §1

HDAC3 = biological target: T4, HDAC3 (Homo sapiens, UniProt O15379); experiment: HDAC Inhibition Screening Assay (FLUOR DE LYS Fluorimetric Drug Discovery Kit), HDAC3; conditions: for inhibition at 2 µM: 2 μM compound; for inhibition at 10 µM: 10 μM compound; for inhibition at 50 µM: 50 μM compound
T4 construct: purchased Enzo Life Sciences
Method in brief: as §1

T1 sequence (Q92769 whole entry): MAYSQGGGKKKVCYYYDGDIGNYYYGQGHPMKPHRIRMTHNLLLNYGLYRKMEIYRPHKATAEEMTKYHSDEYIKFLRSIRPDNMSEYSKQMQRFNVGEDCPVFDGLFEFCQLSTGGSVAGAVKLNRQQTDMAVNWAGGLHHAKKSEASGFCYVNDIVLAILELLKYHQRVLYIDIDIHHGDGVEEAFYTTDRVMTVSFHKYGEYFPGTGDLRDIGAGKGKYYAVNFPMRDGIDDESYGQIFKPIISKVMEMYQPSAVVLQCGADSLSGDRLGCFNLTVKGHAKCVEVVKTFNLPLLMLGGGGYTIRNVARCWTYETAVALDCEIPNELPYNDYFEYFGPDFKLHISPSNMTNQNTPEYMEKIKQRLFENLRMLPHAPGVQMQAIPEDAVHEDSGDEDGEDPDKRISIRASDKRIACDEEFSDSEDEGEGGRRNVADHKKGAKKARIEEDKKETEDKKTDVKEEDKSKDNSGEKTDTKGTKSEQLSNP
T3 sequence (Q13547 whole entry): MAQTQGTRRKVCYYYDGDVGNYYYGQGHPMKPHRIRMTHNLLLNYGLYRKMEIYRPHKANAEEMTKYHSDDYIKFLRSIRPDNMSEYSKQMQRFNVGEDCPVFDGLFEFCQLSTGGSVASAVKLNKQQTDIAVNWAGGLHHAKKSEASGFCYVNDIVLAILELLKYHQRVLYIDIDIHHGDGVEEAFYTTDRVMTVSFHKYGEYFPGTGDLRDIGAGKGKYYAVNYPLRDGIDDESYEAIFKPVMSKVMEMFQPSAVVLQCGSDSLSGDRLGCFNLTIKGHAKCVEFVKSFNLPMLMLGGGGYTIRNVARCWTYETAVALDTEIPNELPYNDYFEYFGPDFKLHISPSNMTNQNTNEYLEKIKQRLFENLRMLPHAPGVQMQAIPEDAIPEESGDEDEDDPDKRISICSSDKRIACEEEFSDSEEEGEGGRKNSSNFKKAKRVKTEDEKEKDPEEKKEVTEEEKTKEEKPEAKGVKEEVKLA
T4 sequence (O15379 whole entry): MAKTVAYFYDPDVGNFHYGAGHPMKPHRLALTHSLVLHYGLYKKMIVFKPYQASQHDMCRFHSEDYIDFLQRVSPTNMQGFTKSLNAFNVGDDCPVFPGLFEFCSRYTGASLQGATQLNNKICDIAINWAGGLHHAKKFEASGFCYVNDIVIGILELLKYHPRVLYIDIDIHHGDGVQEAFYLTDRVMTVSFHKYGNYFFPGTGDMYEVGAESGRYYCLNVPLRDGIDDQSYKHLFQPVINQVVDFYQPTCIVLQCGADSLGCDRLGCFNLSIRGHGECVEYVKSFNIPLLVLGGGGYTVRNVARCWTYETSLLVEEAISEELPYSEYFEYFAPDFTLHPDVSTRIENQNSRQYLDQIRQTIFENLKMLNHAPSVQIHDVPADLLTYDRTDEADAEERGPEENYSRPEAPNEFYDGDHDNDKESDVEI
T4 sequence (O75376 395-489 partner limits assumed): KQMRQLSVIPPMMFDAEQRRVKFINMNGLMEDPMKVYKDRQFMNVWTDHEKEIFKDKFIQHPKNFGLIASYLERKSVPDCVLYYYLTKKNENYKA

Structure (SMILES) | inhibition at 2 µM (HDAC2) [%] | inhibition at 10 µM (HDAC2) [%] | inhibition at 50 µM (HDAC2) [%] | inhibition at 4 µM (ATX (autotaxin)) [%] | inhibition at 20 µM (ATX (autotaxin)) [%] | inhibition at 50 µM (ATX (autotaxin)) [%] | inhibition at 2 µM (HDAC1) [%] | inhibition at 10 µM (HDAC1) [%] | inhibition at 50 µM (HDAC1) [%] | inhibition at 2 µM (HDAC3) [%] | inhibition at 10 µM (HDAC3) [%] | inhibition at 50 µM (HDAC3) [%]
CN(C(=O)OCc1cc(C(F)(F)F)cc(C(F)(F)F)c1)C1CCc2ccc(/C=C/C(=O)NO)cc21 (stereo not drawn) [Compound 65, 3,5-bis(trifluoromethyl)benzyl (E)-(6-(3-(hydroxyamino)-3-oxoprop-1-en-1-yl)-2,3-dihydro-1H-inden-1-yl)(methyl)carbamate] | 50 to 80 | > 80 | > 80 | > 80 | > 80 | > 80 | < 50 | 50 to 80 | > 80 | < 50 | 50 to 80 | > 80
O=C(/C=C/c1ccc2c(c1)CCC2NC(=O)c1cc(C(F)(F)F)cc(C(F)(F)F)c1)NO (stereo not drawn) [Compound 22, (E)-N-(5-(3-(hydroxyamino)-3-oxoprop-1-en-1-yl)-2,3-dihydro-1H-inden-1-yl)-3,5-bis(trifluoromethyl)benzamide] | 50 to 80 | > 80 | > 80 | < 50 | < 50 | < 50 | 50 to 80 | > 80 | > 80 | 50 to 80 | > 80 | > 80
Nc1cc(F)ccc1NC(=O)CCCCCCC(=O)NC1CCc2cc(/C=C/C(=O)Nc3cc(Cl)cc(Cl)c3)ccc21 (stereo not drawn) [Compound 41] | < 50 | < 50 | < 50 | < 50 | < 50 | < 50 | < 50 | < 50 | < 50 | < 50 | < 50 | < 50
CCN(CC)c1ccc(C(=O)NC2CCc3cc(/C=C/C(=O)NCCCCCC(=O)Nc4ccc(F)cc4N)ccc32)cc1 (stereo not drawn) [Compound 29, (E)-N-(5-(3-((6-((2-amino-4-fluorophenyl)amino)-6-oxohexyl)amino)-3-oxoprop-1-en-1-yl)-2,3-dihydro-1H-inden-1-yl)-4-(diethylamino)benzamide] | < 50 | < 50 | 50 to 80 | < 50 | < 50 | < 50 | < 50 | < 50 | < 50 | < 50 | < 50 | < 50
COc1ccc2c(c1)CCC2NC(=O)CCCCCCC(=O)Nc1ccc(F)cc1N (stereo not drawn) [Compound 43, N1-(2-amino-4-fluorophenyl)-N8-(5-methoxy-2,3-dihydro-1H-inden-1-yl)octanediamide] | < 50 | < 50 | 50 to 80 | < 50 | < 50 | < 50 | < 50 | < 50 | < 50 | < 50 | 50 to 80 | 50 to 80
O=C(/C=C/c1ccc2c(c1)CCC2NCCC(=O)Nc1cc(C(F)(F)F)cc(C(F)(F)F)c1)NO (stereo not drawn) [Compound 50, (E)-3-(1-((3-((3,5-bis(trifluoromethyl)phenyl)amino)-3-oxopropyl)amino)-2,3-dihydro-1H-inden-5-yl)-N-hydroxyacrylamide] | > 80 | > 80 | > 80 | < 50 | < 50 | < 50 | > 80 | > 80 | > 80 | > 80 | > 80 | > 80
Nc1cc(F)ccc1NC(=O)CCCCCCC(=O)Nc1ccc2c(c1)CCC(Cc1cc(C(F)(F)F)cc(C(F)(F)F)c1)C2=O (stereo not drawn) [Compound 9, N1-(2-amino-4-fluorophenyl)-N8-(6-(3,5-bis(trifluoromethyl)benzyl)-5-oxo-5,6,7,8-tetrahydronaphthalen-2-yl)octanediamide] | < 50 | < 50 | < 50 | < 50 | < 50 | < 50 | < 50 | < 50 | < 50 | < 50 | < 50 | < 50
O=C(CCCCCCC(=O)Nc1ccc2c(c1)CCC/C2=N\O)NO [Compound 3, (E)-N1-hydroxy-N8-(5-(hydroxyimino)-5,6,7,8-tetrahydronaphthalen-2-yl)octanediamide] | > 80 | > 80 | > 80 | < 50 | < 50 | < 50 | > 80 | > 80 | > 80 | > 80 | > 80 | > 80
Cc1[nH]c2ccccc2c1CCNC1CCCc2cc(/C=C/C(=O)NO)ccc21 (stereo not drawn) [Compound 63, (E)-N-hydroxy-3-(5-((2-(2-methyl-1H-indol-3-yl)ethyl)amino)-5,6,7,8-tetrahydronaphthalen-2-yl)acrylamide] | > 80 | > 80 | > 80 | < 50 | < 50 | < 50 | > 80 | > 80 | > 80 | > 80 | > 80 | > 80
O=C(/C=C/c1ccc2c(c1)CCC2N1CC(=O)N(c2cc(Cl)cc(Cl)c2)C1=O)NO (stereo not drawn) [Compound 37, (E)-3-(1-(3-(3,5-dichlorophenyl)-2,4-dioxoimidazolidin-1-yl)-2,3-dihydro-1H-inden-5-yl)-N-hydroxyacrylamide] | > 80 | > 80 | > 80 | < 50 | < 50 | < 50 | > 80 | > 80 | > 80 | > 80 | > 80 | > 80

Next, values leading:

inhibition at 2 µM (HDAC2) [%] | inhibition at 10 µM (HDAC2) [%] | inhibition at 50 µM (HDAC2) [%] | inhibition at 4 µM (ATX (autotaxin)) [%] | inhibition at 20 µM (ATX (autotaxin)) [%] | inhibition at 50 µM (ATX (autotaxin)) [%] | inhibition at 2 µM (HDAC1) [%] | inhibition at 10 µM (HDAC1) [%] | inhibition at 50 µM (HDAC1) [%] | inhibition at 2 µM (HDAC3) [%] | inhibition at 10 µM (HDAC3) [%] | inhibition at 50 µM (HDAC3) [%] | Structure (SMILES)
> 80 | > 80 | > 80 | < 50 | < 50 | < 50 | < 50 | 50 to 80 | 50 to 80 | 50 to 80 | > 80 | > 80 | Nc1cc(F)ccc1NC(=O)CCCCCNC(=O)/C=C/c1ccc2c(c1)CCC2NC(=O)c1ccc(F)cc1 (stereo not drawn) [Compound 31, (E)-N-(5-(3-((6-((2-amino-4-fluorophenyl)amino)-6-oxohexyl)amino)-3-oxoprop-1-en-1-yl)-2,3-dihydro-1H-inden-1-yl)-4-fluorobenzamide]
< 50 | < 50 | < 50 | < 50 | < 50 | < 50 | < 50 | < 50 | < 50 | < 50 | < 50 | < 50 | Nc1cc(F)ccc1NC(=O)c1ccc(COc2ccc3c(c2)CCC(Cc2cc(C(F)(F)F)cc(C(F)(F)F)c2)C3=O)cc1 (stereo not drawn) [Compound 67, N-(2-amino-4-fluorophenyl)-4-(((6-(3,5-bis(trifluoromethyl)benzyl)-5-oxo-5,6,7,8-tetrahydronaphthalen-2-yl)oxy)methyl)benzamide]
> 80 | > 80 | > 80 | < 50 | < 50 | < 50 | > 80 | > 80 | > 80 | > 80 | > 80 | > 80 | CN(C)c1ccc(C(=O)NC2CCc3cc(/C=C/C(=O)NO)ccc32)cc1 (stereo not drawn) [Compound 26, (E)-4-(dimethylamino)-N-(5-(3-(hydroxyamino)-3-oxoprop-1-en-1-yl)-2,3-dihydro-1H-inden-1-yl)benzamide]
< 50 | < 50 | < 50 | < 50 | < 50 | < 50 | < 50 | < 50 | < 50 | < 50 | < 50 | < 50 | Nc1cc(F)ccc1NC(=O)/C=C/c1ccc2c(c1)CCCC2NC(=O)c1cc(C(F)(F)F)cc(C(F)(F)F)c1 (stereo not drawn) [Compound 23]
> 80 | > 80 | > 80 | < 50 | < 50 | < 50 | > 80 | > 80 | > 80 | > 80 | > 80 | > 80 | Cc1ccc(S(=O)(=O)NC2CCc3cc(/C=C/C(=O)NO)ccc32)cc1 (stereo not drawn) [Compound 16, (E)-N-hydroxy-3-(1-((4-methylphenyl)sulfonamido)-2,3-dihydro-1H-inden-5-yl)acrylamide]
